For assay [1], the system named is normal human bronchial epithelial (NHBE) cells. Kind of assay: UTP-induced mucin secretion, air-liquid interface culture, mucus ELISA. The assay is classed as cell-based. Conditions: for mucin secretion in cells stimulated by secretagogues: general statement, Example 9: 15 min pre-incubation, UTP 0.1 mM 2 hours, 500 nM calphostin C, 10 µM Rp-8-Br-PET-cGMP, 50 µM LY83583. How it is done:
(§1) Cell Culture System: Expansion and cryopreservation. Primary normal human bronchial epithelial (NHBE) cells (Clonetics, San Diego, CA) were seeded into vented T75 tissue culture flasks (500 cells/cm^2) in bronchial epithelial basal medium (BEBM; Clonetics, San Diego, CA) containing 25 ng/ml human recombinant epidermal growth factor (EGF; Intergen, Purchase, NY), 65 ng/ml bovine pituitary extract (prepared by the methods of Bertolero et al. Exp Cell Res 155:64, 1984), 5 x 10^-8M all-trans retinoic acid, 1.5µg/ml bovine serum albumin (Intergen, Purchase, NY), 20 IU/ml nystatin (Gibco, Grand Island, NY), 0.5µg/ml hydrocortisone, 5µg/ml insulin, 10µg/ml transferrin, 0.5µg/ml epinephrine, 6.5ng/ml triiodothyronine, 50µg/ml gentamicin, and 50µg/ml amphotericin-B (Clonetics; San Diego, CA). Once confluent, cultures were dissociated with trypsin/EDTA and frozen as passage-2 according to the methods of Clonetics Corporation.
Air-liquid interface culture of NHBE cells. Following the expansion, NHBE cells were cultured in air/liquid interface according to the methods of Gray and coworkers with minor modifications (Gray et al. Am J Respir Cell Mol Biol 14:104, 1996). The air-liquid interface culture was initiated by seeding NHBE cells (passage-2, 2x10^4 cells/cm^2) on Transwell-clear culture inserts (24.5 mm, 0.45 µm pore size; Costar, Cambridge, MA) that were thin coated with rat tail collagen, type I (Collaborative Research, Bedford, MA). Cells were cultured submerged to 70% confluency (5-7 days) in a 1:1 mixture of bronchial epithelial cell growth medium (Clonetics, San Diego, CA):Dulbecco's modified Eagles medium with high glucose (BEGM:DMEM-H), containing the same supplements as described above with the exception of EGF (0.5 ng/ml). When cultures were 70% confluent, the air-liquid interface was created by removing the apical medium, and the basal medium (BEGM:DMEM-H) was changed daily thereafter. Cells were then cultured for an additional 14 days in air-liquid interface, a total of 21 days in culture.
(§2) Mucus ELISA: Mucus secreted from the airway epithelial cells in vitro after stimulation by activators was assessed using an ELISA (antibody capture method) (E. Harlow, D. Lane. "Antibodies: A Laboratory Manual." New York: Cold Spring Harbor Laboratory Press, 1988), wherein the collected mucus is bound directly to the ELISA plate. Mucus was detected using an antibody raised against monkey airway mucus (Lin et al. Am J Respir Cell Mol Biol 1:41, 1989). […]
NHBE cells were pre-incubated with the indicated inhibitor for 15 min, then stimulated with UTP (0.1mM) for 2 hours. Secreted mucin in the apical medium was collected and assayed by ELISA.

The test system of a further assay is MARCKS. Kind of assay: Phosphorylation state of MARCKS in airway epithelial cells. Type of assay: cell-based, human. The protocol:
To detect MARCKS protein in these cells, cells were labeled with ^3H-myristic acid (as MARCKS is myristoylated) for 16 hours in media. Cells were lysed, and MARCKS protein was immunoprecipitated according to the method of Spizz & Blackshear (J Biol Chem 271:553, 1996) using monoclonal antibody 2F12 (a gift from the Blackshear laboratory).
(§3) Phosphorylation of MARCKS by PMA was attenuated by Calphostin C (500 nM). NHBE cells also contained substantial amounts of cGMP-dependent protein kinase type 1α (PKG-1α) activity, which was localized to the cytosolic fraction. […] In addition, the phosphorylation of MARCKS induced by PMA was reversed by incubation with 8-Br-cGMP (10 µM).

Assay [2] addresses T1, cGMP-dependent protein kinase type 1α (PKG-1α) (Homo sapiens, UniProt Q13976).
T1 construct: NHBE cells also contained substantial amounts of cGMP-dependent protein kinase type 1α (PKG-1α) activity; endogenous in cells; host or cells: primary normal human bronchial epithelial (NHBE) cells, Clonetics
T1 sequence (Q13976 1-671): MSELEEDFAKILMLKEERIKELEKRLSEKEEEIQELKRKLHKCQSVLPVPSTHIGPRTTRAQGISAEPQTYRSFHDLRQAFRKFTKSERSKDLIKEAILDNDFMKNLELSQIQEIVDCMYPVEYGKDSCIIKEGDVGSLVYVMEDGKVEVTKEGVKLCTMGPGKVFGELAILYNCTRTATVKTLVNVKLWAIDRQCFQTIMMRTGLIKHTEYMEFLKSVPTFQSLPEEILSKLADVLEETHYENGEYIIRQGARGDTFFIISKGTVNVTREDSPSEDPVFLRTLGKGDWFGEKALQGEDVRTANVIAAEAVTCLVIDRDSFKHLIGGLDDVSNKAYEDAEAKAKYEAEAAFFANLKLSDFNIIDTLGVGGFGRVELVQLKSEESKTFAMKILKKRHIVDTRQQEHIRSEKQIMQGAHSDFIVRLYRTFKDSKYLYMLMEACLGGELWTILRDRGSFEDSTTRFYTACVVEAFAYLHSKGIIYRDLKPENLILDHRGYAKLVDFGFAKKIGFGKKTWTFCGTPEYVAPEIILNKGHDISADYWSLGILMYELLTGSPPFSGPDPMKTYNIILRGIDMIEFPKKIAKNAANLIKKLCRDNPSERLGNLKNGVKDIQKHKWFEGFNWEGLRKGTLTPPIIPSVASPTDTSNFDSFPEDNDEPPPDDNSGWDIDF
Nature of the assay: PKG activity in NHBE cells. The settings on record: 100 µM. The assay is classed as cell-based. How it is done:
as §3

Assay [3] concerns normal human bronchial epithelial (NHBE) cells. Nature of the assay: Mucin secretion stimulated by PMA + 8-Br-cGMP, air-liquid interface culture, mucus ELISA. The assay is classed as cell-based. The settings on record: 500nM, pre-incubated 15 min; PMA (100 nM) + 8-Br-cGMP (1µM) for 15 min. The protocol:
as §1, with “Corporation. […]” for “Corporation.”
as §2

Turning to calphostin C, the “mucin secretion in cells stimulated by secretagogues” value (from here on “mucin secretion in cells stimulated”) in assay [1] was “inhibit mucin secretion”. In the assay with MARCKS (500 nM), the “phosphorylation of MARCKS by PMA” value is reported as “attenuated”.

Consider dibutyryl cGMP, for which the “constitutive PKG activity” value in assay [2] is recorded as “increased”.

Consider `C=C1[C@@H](O)[C@@H]2O[C@]3(CC[C@H](/C=C/[C@@H](C)[C@@H]4CC(C)=C[C@@]5(O[C@H](C[C@@](C)(O)C(=O)O)CC[C@H]5O)O4)O3)CC[C@H]2O[C@@H]1[C@@H](O)C[C@H](C)[C@H]1O[C@@]2(CCCCO2)CC[C@H]1C` [okadaic acid], for which the “mucin hypersecretion induced by UTP” value in assay [1] (500nM, pre-incubated 15 min, UTP (0.1 mM) for 2 hours) is reported as “blocks mucin hypersecretion”. For the same compound, in assay [1], the “mucin secretion in cells stimulated” value is “inhibit mucin secretion”. Moreover, the “reversal by 8-Br-cGMP of PMA-induced phosphorylation of MARCKS” value in the assay on MARCKS (500 nM) is on record as “inhibited this effect”. Also, in assay [3], the “mucin hypersecretion induced by PMA + 8-Br-cGMP” value is “blocks mucin hypersecretion”.

With `O=c1c2nc(Br)n(C3OC4COP(=O)(S)OC4C3O)c2nc2[nH]c(-c3ccccc3)cn12` (centres unmarked) [Rp-8-Br-PET-cGMP], the “mucin secretion in cells stimulated” value in assay [1] is given as “inhibit mucin secretion”.

On to `Nc1nc2c(nc(Br)n2[C@@H]2O[C@@H]3COP(=O)(O)O[C@H]3[C@H]2O)c(=O)[nH]1` [8-Br-cGMP, 8-bromo-cGMP], for which, in the assay on MARCKS (10 µM), the “phosphorylation of MARCKS induced by PMA” value is “reversed”.

For `CCCCCCCCCCCCCC(=O)O[C@@H]1[C@@H](C)[C@@]2(O)[C@@H](C=C(CO)C[C@]3(O)C(=O)C(C)=C[C@@H]23)[C@@H]2C(C)(C)[C@]12OC(C)=O` [PMA, phorbol 12-myristate 13-acetate], in the assay on MARCKS (PMA 100 nM, concentration of 4α-PMA not given), the “phosphorylation of MARCKS” value was “phosphorylated”.

For `O=C1C(Nc2ccccc2)=CC(=O)c2ncccc21` [LY83585], the “mucin secretion in cells stimulated” value in assay [1] was “inhibit mucin secretion”.

These data come from patent EP1538162B1, “Compositions for altering mucus secretion” (NORTH CAROLINA STATE UNIVERSITY, priority 1999, dated 2000).
